# Where no end group is shown, it is not given here. [ ]: non-standard residue; d: D form.
# Columns and labels:
# Type in all cases: cell-based
# [1] = system: phospho-Pyk2 in 8226 cells; assay: Phospho-Pyk2 levels (immunoblot)
# prostate tumor cell = assay: Random haptotaxis (cell migration) on laminin 322 (laminin 5); conditions: soluble peptide, cells grown on ligand before treatment
# Description: Defining the minimal region of HYD1 necessary to potentiate drug-induced apoptosis in suspension and adherent cultures is of interest. Below is a study to determine the minimal HYD1 sequence required to block prostate tumor cell migration. Similar studies as those outlined below and using the same peptide sequences will be used to determine the minimal amino acid sequence required for potentiation of drug induced apoptosis.
# This response to the peptide is independent of disrupting adhesion to laminin 322 (laminin 5) since the cells were grown on a ligand before treatment with the peptide. […] All other alanine-substitution mutants resulted cell migration, i.e., a loss of peptide activity.
# Using the negative control scrambled peptide, HYDS (SEQ ID NO:44), to indicate 100% cell migration, several truncated peptides including, ikmviswkg (SEQ ID NO:22), kmviswkg (SEQ ID NO:39), and kikmviswk (SEQ ID NO:37) were effective at blocking cell migration by approximately 50%.
# 8226 cells [2] = assay: Cell adhesion to HS-5 bone marrow stroma cells (CMFDA fluorescence); conditions: varying concentrations, 30 minutes pre-incubation, two hours adhesion
# Method: (§1) FIGS. 31A and 31B are graphs showing that HYD1 blocks adhesion of 8226 but not H929 cells to the bone marrow stroma cell line HS-5. Varying concentrations of either HYD1, HYD1S or a 1:100 dilution of a β1 integrin functional blocking antibody was added to either (FIG. 31A) CMFDA labeled 8226 cells or (FIG. 31B) CMFDA labeled H929 cells for 30 minutes prior to adding fluorescently labeled cells to either HS-5 or BSA coated wells for two hours. Unadhered cells were gently removed and adherent cells were quantified by total fluorescence. The independent experiments were performed and similar results were obtained.
# (§2) Quantification of cell adhesion to HS-5 bone marrow stroma cells. Adhesion of 8226 or H929 cells to the HS-5 bone marrow stromal cells was performed as previously described (Nefedova Y et al. Leukemia, 2003; 17:1175-1182). Briefly, HS-5 cells were plated at a density of 500,000 cell/ml in a 96 well plate overnight. […] Cells were then counted and placed at a density of one million cells per ml and varying concentrations of peptide were added for 30 minutes prior to addition of 100 μl of cells to either HS-5 or BSA coated plates. Cells were allowed to adhere for two hours and unbound cells were washed with three gentle washes and total fluorescence was detected by a Victor plate reader, at 485 nm excitation and 535 nm emission. […]
# H929 cells = assay: as above; conditions: varying concentrations, 30 minutes pre-incubation, two hours adhesion
# Method: as §1, §2
# 8226 cells [3] = assay: Detection of apoptosis, annexin V staining and FACS, suspension culture
# Method: FIG. 17 is a graph showing that HYD1 induces apoptosis as a single agent in 8226 and H929 cells cultured in suspension. 8226 and H929 cells were either treated with varying concentrations of HYD1 or vehicle control (equal volume sterile double distilled water) for 24 hours and apoptotic cells were detected by FACS analysis of annexin V positive cells. HYD1 specific apoptosis equals cell death due to peptide minus any apoptosis detected in control cells.
# Detection of Apoptosis. A flow cytometric assay measuring Annexin V/PI staining was used to measure apoptotic cells following 24 hours of peptide exposure as previously described (Damiano J S et al. Blood, 1999; 93:1658-1667). The assay was performed in triplicate and 3 independent experiments were performed. Caspase 3 and 8 activity was measured at 6 and 24 hrs post peptide treatment per manufactures' instructions (BD Biosciences, San Jose, Calif.). The caspase assays were performed in triplicate and repeated twice.
# Myeloma cells were plated at a density of 400,000 cells per ml in a 24 well plate. Cells were treated with the indicated dose of the peptide for 24 hours. Following 24 hrs of peptide exposure, apoptotic cells were detected using Annexin V staining and FACS analysis. Ten thousand events were analyzed by flow cytometry (Becton Dickinson, San Jose, Calif.). Experiments were performed in triplicate and repeated twice. Shown is a representative figure.
# [4] = system: phospho Pyk2 in H929 cells; assay: Phospho-Pyk2 levels in suspension culture (immunoblot); conditions: H929 cells cultured in suspension
# Description: Based upon the observation that HYD1 increased melphalan induced apoptosis in suspension cultures, whether treatment with HYD1 inhibits phosphorylation of a downstream mediator of β1 integrin signaling (Pyk2) in suspension cultures was investigated.
# 8226 cells [5] = assay: Cell adhesion to fibronectin (crystal violet staining); conditions: varying concentrations, 30 minutes pre-incubation, 2 hours adhesion
# Method: FIGS. 30A and 30B are graphs showing that HYD1 but not the scrambled derivative HYD1S inhibited cell adhesion of both 8226 and H929 cells to FN. Varying concentrations of either HYD1, HYD1S, or a 1:100 dilution of either α4β1 or α5β1 integrin functional blocking antibodies was added to either (FIG. 30A) 8226 cell or (FIG. 30B) H929 cells for 30 minutes prior to adding cells to either FN or BSA coated wells. Cells were allowed to adhere for 2 hours and adherent cells were measured by crystal violet staining at 540 nm. Shown is the mean and standard deviation of a representative experiment performed in quadruplicate. Three independent experiments were performed and similar results were obtained.
# Quantification of cell adhesion to fibronectin. […] Cell adhesion was detected by crystal violet staining as previously described (Damiano J S et al. Blood, 1999; 93:1658-1667; Hazlehurst L A et al. Oncogene, 2000; 19:4319-4327).
# Briefly, 8226 myeloma cells were pre-incubated with varying concentrations of either HYD1 or the scrambled HYD1S peptide for 30 minutes prior to allowing cells to attach to FN for two hours. Following two hours of cell adhesion, the amount of cells adherent to FN was measured. […] Twenty-four hours after drug treatment, apoptosis was measured by Annexin V-PE positive events by FACS analysis. […]
substance,measurement,setting,value
kikmviswkg ([dK][dI][dK][dM][dV][dI][dS][dW][dK]G) [HYD1],phospho-Pyk2 levels,[1],decreased levels of phospho-Pyk2
same,blocking of random haptotaxis on laminin 322 (laminin 5),prostate tumor cell,completely blocks random haptotaxis
same,blocking of 8226 cells binding to HS-5 cells,8226 cells [2],partially blocked
same,blocking of H929 cells binding to HS-5 cells,H929 cells,no effect
same,induction of annexin V positive cells,"8226 cells [3]; suspension culture, single agent, 24 hours",dose dependent induction of annexin V positive cells
same,melphalan-induced apoptosis in cells cultured in suspension,"8226 cells [3]; suspension, peptide with melphalan",increased melphalan-induced apoptosis
same,phospho Pyk2 levels,[4],reduces phospho Pyk2 levels
same,blocking of adhesion of 8226 cells to the extracellular matrix FN,8226 cells [5],blocks adhesion of 8226 and H929 cells to the extracellular matrix FN in a dose dependent manner
